Here are results for 5 substances from US6902901B2, “Polypeptides useful for diagnosis of Aspergillus fumigatus and a process of preparing the same” (Council of Scientific and Industrial Research, priority 1998, dated 2005).

Test [1] deals with A. fumigatus specific IgG antibodies in sera. In words: ELISA of peptide-coated plates with human sera, specific IgG binding. The following applies: diluted 1:100. The procedure:
Sera derived from 25 healthy persons and 30 culture proven allergic bronchopulmonary aspergillosis patients were probed with synthetic peptides of the present invention for A. fumigatus specific antibodies. NUNC ELISA plates were coated with 0-1 ug/ml of peptide in carbonate-bicarbonate buffer, 0.01 M, pH 9.6 for 2 h at 37° C. The unreacted sites were blocked with bovine serum albumin in phosphate buffered saline, 0.01 M, pH 7.4. Diluted sera (1:100) of patients or healthy controls was added to the wells and Incubated for 3 h at 37° C. Washed plates received anti-human IgG-HRP conjugate for 1.5 h at 37° C. washed plates were then assayed with o-phenylene diamine substrate and read at 492 nm.
On the technique in general: An ELISA detects its analyte on a solid surface through an enzyme-linked reagent.

Test [2] has as its system A. fumigatus specific IgE antibodies in sera. Kind of test: ELISA of peptide-coated plates with human sera, specific IgE binding. The procedure: Sera derived from 25 healthy persons and 30 culture proven allergic bronchopulmonary aspergillosis patients were probed with synthetic peptides of the present invention for A. fumigatus specific antibodies. NUNC ELISA plates were coated with 0-1 ug/ml of peptide in carbonate-bicarbonate buffer, 0.01 M, pH 9.6 for 2 h at 37° C. The unreacted sites were blocked with bovine serum albumin in phosphate buffered saline, 0.01 M, pH 7.4. Diluted sera (1:100) of patients or healthy controls was added to the wells and Incubated for 3 h at 37° C. […]

Test [3] concerns mixture of A. fumigatus allergens/antigens and purified 18 kD allergen/antigen. Kind of test: Intraperitoneal immunisation of mice with peptide, serum IgG ELISA. Type of test: in vivo, BALB/c mice. The following applies: Immunised mice; 300 ug peptide i.p. with Freund's incomplete adjuvant; serum 30 days after immunization. The procedure:
Each synthetic peptide (300 ug/150 ul saline) was emulsified with an equal volume of Freund's incomplete adjuvant and used for intraperitoneal immunisation of 3 BALB/c mice. IgG antibodies in the serum collected from these mice 30 days after immunization bound with mixture of A. fumigatus allergens/antigens and purified 18 kD allergen/antigen in ELISA.

In test [4] the test system is Peripheral blood lymphocytes (PBL). In words: Cytokine analysis of PBMC supernatants incubated with peptides. Type of test: cell-based, human. The note with it: PBMC supernatant, 6 days culture with peptide. The procedure:
Peripheral blood lymphocytes (PBL) from healthy donors and aspergillosis patients were fractionated and 2×10^6 cells/well were cultured in presence or absence of synthetic peptides for 6 days in RPMI 1640 medium with 10% autologous serum. The supernatant medium was collected for cytokine analysis and 0.5 mg/ml solution of MTT was added to each well for 30 min. before harvesting cultures with acidified isopropanol. Absorbance was measured at 590 nm.

Test [5] concerns sensitised mast cells of ABPA patients. Kind of test: Histamine release from heparinised whole blood incubated with peptides. The following applies: 30 min at 37° C. Type of test: cell-based, human. On the procedure: Whole blood (heparinised) was incubated with the peptides for 30 min at 37° C. in polystyrene plates followed by centrifugation and collection of supernatants. The supernatants were acylated and were assayed for acylated histamine by histamine assay kit (Immunotech International).

“INQQLNPK (listed as Aspergillus fumigatus) [pep 3, 8 aminoacids peptide, aa 6-14 (also printed aa 6-13) of the 18 kD allergen/antigen]”: in test [1] (Normal sera), the “Absorbance at 490 nm, Specific IgG” value was 0.011. Besides, the “Absorbance at 490 nm, Specific IgG” value in test [1] (Patient sera (ABPA)) is reported as 0.674. Further, the “Absorbance at 490 nm, Specific IgE” value in test [2] (Normal sera) is reported as 0.042. Besides, the “Absorbance at 490 nm, Specific IgE” value in test [2] (Patient sera (ABPA)) was 0.256. Further, the “Absorbance at 490 nm, specific IgG antibodies in mice” value (shortened to “Absorbance at 490 nm … in mice”) in test [3] came out at 0.434. Further, in test [4], the IL-2 stood at 80 pg/mL, the IL-4 is 92 pg/mL, the IL-6 was found to be 620 pg/mL and the IL-10 came to 220 pg/mL. The substance also showed a gamma-IFN in test [4] of 168 pg/mL. Besides, in test [5] (Normal whole blood), the Histamine released stood at 65 nM. Also, in test [5] (Patient (ABPA) whole blood), the Histamine released is 369 nM.
Consider TNKWEDK [pep 5], for which the “Absorbance at 490 nm, Specific IgG” value in test [1] (Normal sera) amounted to 0.012. For the same substance, the “Absorbance at 490 nm, Specific IgG” value in test [1] (Patient sera (ABPA)) is 0.850. The “Absorbance at 490 nm, Specific IgE” value in test [2] (Normal sera) was found to be 0.032. Besides, the “Absorbance at 490 nm, Specific IgE” value in test [2] (Patient sera (ABPA)) was found to be 0.208. Moreover, the “Absorbance at 490 nm … in mice” value in test [3] is 0.498. In test [4], the IL-2 was found to be 260 pg/mL, the IL-4 is 24 pg/mL, the IL-6 was 180 pg/mL and the IL-10 was 36 pg/mL. The same substance gave a gamma-IFN in test [4] of 660 pg/mL. In addition, the Histamine released in test [5] (Normal whole blood) came to 43 nM. For the same substance, the Histamine released in test [5] (Patient (ABPA) whole blood) was 356 nM.
For “LNPKTNKWEDK (listed as Aspergillus fumigatus) [pep 2, 11 aminoacids peptide, aa 10-20 of the 18 kD allergen/antigen]”, in test [1] (Normal sera), the “Absorbance at 490 nm, Specific IgG” value is 0.09. The “Absorbance at 490 nm, Specific IgG” value in test [1] (Patient sera (ABPA)) worked out at 0.852. Also, the “Absorbance at 490 nm, Specific IgE” value in test [2] (Normal sera) came out at 0.039. Besides, the “Absorbance at 490 nm, Specific IgE” value in test [2] (Patient sera (ABPA)) came to 0.473. In addition, in test [3], the “Absorbance at 490 nm … in mice” value came to 0.636. In test [4], this substance yielded an IL-2 of 280 pg/mL, an IL-4 of 48 pg/mL, an IL-6 of 140 pg/mL and an IL-10 of 80 pg/mL. For the same substance, in test [4], the gamma-IFN came to 320 pg/mL. For the same substance, in test [5] (Normal whole blood), the Histamine released worked out at 82 nM. Moreover, in test [5] (Patient (ABPA) whole blood), the Histamine released worked out at 402 nM.
On to “INQQLNPKTNKWEDK (listed as Aspergillus fumigatus) [pep 4, 15 aminoacids peptide, aa 6-20 of the 18 kD allergen/antigen]”, for which the “Absorbance at 490 nm, Specific IgG” value in test [1] (Normal sera) is 0.006. For the same substance, the “Absorbance at 490 nm, Specific IgG” value in test [1] (Patient sera (ABPA)) is 0.845. For the same substance, the “Absorbance at 490 nm, Specific IgE” value in test [2] (Normal sera) is recorded as 0.028. Further, the “Absorbance at 490 nm, Specific IgE” value in test [2] (Patient sera (ABPA)) came to 0.235. In addition, the “Absorbance at 490 nm … in mice” value in test [3] is reported as 0.526. In test [4], the IL-2 came out at 400 pg/mL, the IL-4 worked out at 28 pg/mL, the IL-6 was 120 pg/mL and the IL-10 is 40 pg/mL. The substance further returned a gamma-IFN in test [4] of 520 pg/mL. Moreover, in test [5] (Normal whole blood), the Histamine released came out at 58 nM. In test [5] (Patient (ABPA) whole blood), the Histamine released is reported as 392 nM.
As for LNPKTNKWEDKRY [pep 6], the “Absorbance at 490 nm, Specific IgG” value in test [1] (Normal sera) amounted to 0.004. Also, in test [1] (Patient sera (ABPA)), the “Absorbance at 490 nm, Specific IgG” value is 0.828. For the same substance, the “Absorbance at 490 nm, Specific IgE” value in test [2] (Normal sera) was 0.033. For the same substance, the “Absorbance at 490 nm, Specific IgE” value in test [2] (Patient sera (ABPA)) is recorded as 0.145. The “Absorbance at 490 nm … in mice” value in test [3] worked out at 0.547. In test [4], this substance had an IL-2 of 120 pg/mL, an IL-4 of 62 pg/mL, an IL-6 of 760 pg/mL and an IL-10 of 340 pg/mL. Besides, the gamma-IFN in test [4] amounted to 240 pg/mL. Further, the Histamine released in test [5] (Normal whole blood) was 62 nM. In test [5] (Patient (ABPA) whole blood), the Histamine released was found to be 278 nM.
